For 24 compounds, IC50 results are on record in patent US8158621B2, “Methods of treating or preventing autoimmune diseases with 2,4-pyrimidinediamine compounds” (Rigel Pharmaceuticals, Inc., priority 2002, dated 2012).

The first test addresses T1, Syk kinase (Homo sapiens, UniProt P43405).
T1 construct: purchased Upstate, Lake Placid NY
As to the kind of experiment: Syk kinase biochemical fluorescence polarization assay. The note with it: isolated Syk kinase, fluorescence polarization, 4 uM ATP. On the technique in general: Polarisation of emitted light reports the rotation of a fluorescent probe.
Regarding `CC1(C)Oc2ccc(Nc3nc(Nc4ccc5c(cnn5CCCO)c4)ncc3F)cc2NC1=O` [Compound R935432], the IC50 stood at 0.05 µM.
Same read-out and setting: the figure for `O=C1Nc2cc(Nc3nc(Nc4cc(Cl)cc(Cl)c4)ncc3F)ccc2OC1(F)F` [Compound R926985] is 0.203 µM.
On to `CC(=O)N1CCN(c2ccc(Nc3ncc(F)c(NC4CC4)n3)cc2)CC1` [Compound R945370], for which the IC50 is 1.05 µM.
Consider `COc1cc(Nc2ncc(F)c(Nc3ccc(Cl)c(Cl)c3)n2)cc(OC)c1` [Compound R927060], for which the IC50 amounted to 0.62 µM.
As to `N[C@@H]1CCCC[C@H]1Nc1ncc(F)c(Nc2cc(Cl)cc(Cl)c2)n1` [Compound R950440], the IC50 is > 10 µM.
The same measure, in the same setting: the figure for `Cn1ncc2ccc(Nc3ncc(F)c(Nc4ccc5c(c4)NC(=O)C(F)(F)O5)n3)cc21` [Compound R940368] is 0.001 µM; for `CN(C)Cc1cc2cc(Nc3ncc(F)c(Nc4ccc5c(c4)NC(=O)C(F)(F)O5)n3)ccc2o1` [Compound R926979] it is 0.013 µM.
As for `COc1ccc(Nc2ncc(F)c(Nc3ccc4c(n3)NC(=O)CO4)n2)cc1F` [Compound R945402], the IC50 is 0.418 µM.
In turn, `CC1(C)Oc2ccc(Nc3nc(Nc4cc(Cl)c(O)c(Cl)c4)ncc3F)cc2NC1=O` [Compound R927051] displayed an IC50 of 0.01 µM.
Same read-out and setting: as for `O=C1Nc2cc(Nc3nc(Nc4ccc5cc[nH]c5c4)ncc3F)ccc2OC1(F)F` [Compound R926977], the figure is 0.007 µM; as for `CC1(C)Oc2ccc(Nc3nc(Nc4ccc(OC(F)(F)F)c(Cl)c4)ncc3F)nc2NC1=O` [Compound R940390], > 10 µM.
Consider `CC1(C)Oc2ccc(Nc3nc(Nc4cc(Cl)cc(Cl)c4)ncc3F)nc2NC1=O` [Compound R940387], for which the IC50 is > 10 µM.
The same measure, in the same setting: as for `COc1cc(Nc2ncc(F)c(Nc3ccc4c(n3)NC(=O)CO4)n2)cc(OC)c1` [Compound R945401], the figure is 0.007 µM.
`COc1cc(Nc2ncc(F)c(Nc3ccc4c(n3)NC(=O)C(C)(C)O4)n2)cc(OC)c1` [Compound R940372] came in with an IC50 of 0.253 µM.
Turning to `O=C1COc2ccc(Nc3nc(Nc4ccc5c(c4)OCCO5)ncc3F)nc2N1` [Compound R945405], the IC50 came out at 0.168 µM.
As for `Cn1ncc2ccc(Nc3ncc(F)c(Nc4ccc5c(n4)NC(=O)C(C)(C)O5)n3)cc21` [Compound R940389], the IC50 came out at 0.053 µM.
The same measure, in the same setting: the figure for `O=C1COc2ccc(Nc3nc(Nc4ccc(N5CCOCC5)cc4)ncc3F)nc2N1` [Compound R945412] is 0.308 µM.
Consider `CC(=O)N1CCN(c2ccc(Nc3ncc(F)c(Nc4ccc5c(n4)NC(=O)C(C)(C)O5)n3)cc2)CC1` [Compound R945419], for which the IC50 was found to be 0.127 µM.
The same measure, in the same setting: the figure for `CC1(C)C(=O)NC(=O)c2cc(Nc3nc(Nc4ccc5cn[nH]c5c4)ncc3F)ccc21` [Compound R908956] is 1.18 µM; for `CC(=O)N1CCN(c2ccc(Nc3ncc(F)c(NC4CCC4)n3)cc2)CC1` [Compound R945385] it is 2.12 µM.
In the case of `COC(=O)Cn1ncc2cc(Nc3ncc(F)c(Nc4ccc5c(c4)NC(=O)C(C)(C)O5)n3)ccc21` [Compound R935436], the IC50 is 0.064 µM.
With `CN1CCN(c2ccc(Nc3ncc(F)c(Nc4ccc5c(n4)NC(=O)C(C)(C)O5)n3)cc2)CC1` [Compound R945427], the IC50 amounted to 0.479 µM.
`CN1CCN(c2ccc(Nc3ncc(F)c(Nc4ccc5c(n4)NC(=O)CO5)n3)cc2)CC1` [Compound R945426] displayed an IC50 of 0.301 µM.
As for `COC(=O)N1CCN(c2ccc(Nc3ncc(F)c(Nc4ccc5c(n4)NC(=O)C(C)(C)O5)n3)cc2)CC1` [Compound R945416], the IC50 amounted to 0.515 µM.

The next test has as its system cultured human mast cells (CHMC). As to the kind of experiment: CHMC low cell density IgE activation: tryptase assay. The test is classed as cell-based. The note with it: low cell density; read-out: CHMC anti-IgE Tryptase. In outline: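 Cells pelleted, taken up in warm MT, plated at 1000-1500/well, held 1 hr 37° C. Anti-IgE added, 30 min 37° C. Plates spun; supernatant mixed with tryptase substrate, 30 min RT.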
Regarding `CC1(C)Oc2ccc(Nc3nc(Nc4ccc5c(cnn5CCCO)c4)ncc3F)cc2NC1=O` [Compound R935432], the IC50 was 0.036 µM.
For the compound `O=C1Nc2cc(Nc3nc(Nc4cc(Cl)cc(Cl)c4)ncc3F)ccc2OC1(F)F` [Compound R926985], the IC50 came to 0.14 µM.
As to `CC(=O)N1CCN(c2ccc(Nc3ncc(F)c(NC4CC4)n3)cc2)CC1` [Compound R945370], the IC50 amounted to 0.522 µM.
Still for that read-out and setting: the figure for `COc1cc(Nc2ncc(F)c(Nc3ccc(Cl)c(Cl)c3)n2)cc(OC)c1` [Compound R927060] is 0.222 µM.
Consider `N[C@@H]1CCCC[C@H]1Nc1ncc(F)c(Nc2cc(Cl)cc(Cl)c2)n1` [Compound R950440], for which the IC50 turned out to be 10.5 µM.
Consider `Cn1ncc2ccc(Nc3ncc(F)c(Nc4ccc5c(c4)NC(=O)C(F)(F)O5)n3)cc21` [Compound R940368], for which the IC50 was found to be 0.025 µM.
The same measure, in the same setting: the figure for `CN(C)Cc1cc2cc(Nc3ncc(F)c(Nc4ccc5c(c4)NC(=O)C(F)(F)O5)n3)ccc2o1` [Compound R926979] is 0.109 µM.
As to `COc1ccc(Nc2ncc(F)c(Nc3ccc4c(n3)NC(=O)CO4)n2)cc1F` [Compound R945402], the IC50 stood at 0.112 µM.
On the same count and under the same terms, the figure for `O=C1Nc2cc(Nc3nc(Nc4ccc5cc[nH]c5c4)ncc3F)ccc2OC1(F)F` [Compound R926977] is 0.0359 µM.
Take `CC1(C)Oc2ccc(Nc3nc(Nc4ccc(OC(F)(F)F)c(Cl)c4)ncc3F)nc2NC1=O` [Compound R940390]: the IC50 was > 10 µM.
On to `CC1(C)Oc2ccc(Nc3nc(Nc4cc(Cl)cc(Cl)c4)ncc3F)nc2NC1=O` [Compound R940387], for which the IC50 is 1.19 µM.
As to `COc1cc(Nc2ncc(F)c(Nc3ccc4c(n3)NC(=O)C(C)(C)O4)n2)cc(OC)c1` [Compound R940372], the IC50 was determined as 0.094 µM.
As for `O=C1COc2ccc(Nc3nc(Nc4ccc5c(c4)OCCO5)ncc3F)nc2N1` [Compound R945405], the IC50 was 0.131 µM.
In the case of `Cn1ncc2ccc(Nc3ncc(F)c(Nc4ccc5c(n4)NC(=O)C(C)(C)O5)n3)cc21` [Compound R940389], the IC50 was found to be 0.06 µM.
With `O=C1COc2ccc(Nc3nc(Nc4ccc(N5CCOCC5)cc4)ncc3F)nc2N1` [Compound R945412], the IC50 worked out at 0.095 µM.
For `CC(=O)N1CCN(c2ccc(Nc3ncc(F)c(Nc4ccc5c(n4)NC(=O)C(C)(C)O5)n3)cc2)CC1` [Compound R945419], the IC50 worked out at 0.125 µM.
As to `CC1(C)C(=O)NC(=O)c2cc(Nc3nc(Nc4ccc5cn[nH]c5c4)ncc3F)ccc21` [Compound R908956], the IC50 came out at 0.34 µM.
As to `CC(=O)N1CCN(c2ccc(Nc3ncc(F)c(NC4CCC4)n3)cc2)CC1` [Compound R945385], the IC50 is 1.1 µM.
As for `COC(=O)Cn1ncc2cc(Nc3ncc(F)c(Nc4ccc5c(c4)NC(=O)C(C)(C)O5)n3)ccc21` [Compound R935436], the IC50 is 0.058 µM.
Regarding `CN1CCN(c2ccc(Nc3ncc(F)c(Nc4ccc5c(n4)NC(=O)C(C)(C)O5)n3)cc2)CC1` [Compound R945427], the IC50 was 0.279 µM.
Regarding `CN1CCN(c2ccc(Nc3ncc(F)c(Nc4ccc5c(n4)NC(=O)CO5)n3)cc2)CC1` [Compound R945426], the IC50 worked out at 0.256 µM.
For `COC(=O)N1CCN(c2ccc(Nc3ncc(F)c(Nc4ccc5c(n4)NC(=O)C(C)(C)O5)n3)cc2)CC1` [Compound R945416], the IC50 is 0.053 µM.

Another test shares this test system. The test can be described thus: CHMC low cell density ionomycin activation: tryptase assay. The test is classed as cell-based. As to conditions: low cell density; read-out: CHMC Ionomycin Tryptase.
For `CC1(C)Oc2ccc(Nc3nc(Nc4ccc5c(cnn5CCCO)c4)ncc3F)cc2NC1=O` [Compound R935432], the IC50 stood at 8.5 µM.
For the compound `O=C1Nc2cc(Nc3nc(Nc4cc(Cl)cc(Cl)c4)ncc3F)ccc2OC1(F)F` [Compound R926985], the IC50 came to 4.13 µM.
The same measure, in the same setting: the figure for `CC(=O)N1CCN(c2ccc(Nc3ncc(F)c(NC4CC4)n3)cc2)CC1` [Compound R945370] is > 10 µM; for `COc1cc(Nc2ncc(F)c(Nc3ccc(Cl)c(Cl)c3)n2)cc(OC)c1` [Compound R927060] it is 5.17 µM.
The same measure, in the same setting: as for `Cn1ncc2ccc(Nc3ncc(F)c(Nc4ccc5c(c4)NC(=O)C(F)(F)O5)n3)cc21` [Compound R940368], the figure is 1.58 µM; as for `CN(C)Cc1cc2cc(Nc3ncc(F)c(Nc4ccc5c(c4)NC(=O)C(F)(F)O5)n3)ccc2o1` [Compound R926979], 23.5 µM; as for `CC1(C)Oc2ccc(Nc3nc(Nc4cc(Cl)c(O)c(Cl)c4)ncc3F)cc2NC1=O` [Compound R927051], 12.6 µM.
With `O=C1Nc2cc(Nc3nc(Nc4ccc5cc[nH]c5c4)ncc3F)ccc2OC1(F)F` [Compound R926977], the IC50 is > 10 µM.
For the compound `CC1(C)Oc2ccc(Nc3nc(Nc4ccc(OC(F)(F)F)c(Cl)c4)ncc3F)nc2NC1=O` [Compound R940390], the IC50 is > 10 µM.
Turning to `COc1cc(Nc2ncc(F)c(Nc3ccc4c(n3)NC(=O)CO4)n2)cc(OC)c1` [Compound R945401], the IC50 was > 10 µM.
